In patent US12649750B2, “Macrocyclic compounds, compositions, and methods of using thereof” (Sionna Therapeutics Inc., priority 2022, dated 2026):

Columns and labels:
CFTR = biological target: T1, CFTR (Homo sapiens, UniProt P13569, DEL508-508); experiment: TECC24 AUC fold over DMSO @10 μM, CFTR-mediated transepithelial chloride transport in CF-HBE cells; format: cell-based; conditions: test agent AUC divided by DMSO vehicle AUC, primary CF-HBE cells, ΔF508 homozygous donor, 48 hours incubation
T1 construct: Primary human bronchial epithelial cells from a ΔF508 homozygous CF donor; host or cells: primary human bronchial epithelial cells (CF-HBE), ΔF508 homozygous donor
Procedure, shortened: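 ΔF508-homozygous primary bronchial epithelial cells incubated 48 h at 36.5° C with compound (10 μM) in IL-13-containing medium, then TECC24 current-clamp recording in pH 7.4 Hepes saline with benzamil 10 μM, forskolin 10 μM, then CFTR inhibitor-172 20 μM. Equivalent Cl− current AUC between forskolin and inhibitor, expressed as fold over DMSO.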

NBD1 = biological target: T2, NBD1 (Homo sapiens, UniProt P13569); experiment: Aggregation analysis using differential static light scattering (DSLS), thermal stability of NBD1 (ΔTagg); format: binding; conditions: ΔTagg versus DMSO control, NBD1 0.2 mg/ml
T2 construct: Purified recombinant NBD1 was produced using previously described methods; made in house
Procedure, shortened: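 Read-out is ΔTagg: the aggregation temperature, taken at the inflection of the light-scattering curve, less the average of DMSO control wells. Recombinant NBD1 (0.2 mg/ml, pH7.6 buffer containing 2 mM ATP) with test compound was heated at 1° C. per minute up to 70° C.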

T1 sequence (P13569 with tags, fused parts or gaps DEL508-508): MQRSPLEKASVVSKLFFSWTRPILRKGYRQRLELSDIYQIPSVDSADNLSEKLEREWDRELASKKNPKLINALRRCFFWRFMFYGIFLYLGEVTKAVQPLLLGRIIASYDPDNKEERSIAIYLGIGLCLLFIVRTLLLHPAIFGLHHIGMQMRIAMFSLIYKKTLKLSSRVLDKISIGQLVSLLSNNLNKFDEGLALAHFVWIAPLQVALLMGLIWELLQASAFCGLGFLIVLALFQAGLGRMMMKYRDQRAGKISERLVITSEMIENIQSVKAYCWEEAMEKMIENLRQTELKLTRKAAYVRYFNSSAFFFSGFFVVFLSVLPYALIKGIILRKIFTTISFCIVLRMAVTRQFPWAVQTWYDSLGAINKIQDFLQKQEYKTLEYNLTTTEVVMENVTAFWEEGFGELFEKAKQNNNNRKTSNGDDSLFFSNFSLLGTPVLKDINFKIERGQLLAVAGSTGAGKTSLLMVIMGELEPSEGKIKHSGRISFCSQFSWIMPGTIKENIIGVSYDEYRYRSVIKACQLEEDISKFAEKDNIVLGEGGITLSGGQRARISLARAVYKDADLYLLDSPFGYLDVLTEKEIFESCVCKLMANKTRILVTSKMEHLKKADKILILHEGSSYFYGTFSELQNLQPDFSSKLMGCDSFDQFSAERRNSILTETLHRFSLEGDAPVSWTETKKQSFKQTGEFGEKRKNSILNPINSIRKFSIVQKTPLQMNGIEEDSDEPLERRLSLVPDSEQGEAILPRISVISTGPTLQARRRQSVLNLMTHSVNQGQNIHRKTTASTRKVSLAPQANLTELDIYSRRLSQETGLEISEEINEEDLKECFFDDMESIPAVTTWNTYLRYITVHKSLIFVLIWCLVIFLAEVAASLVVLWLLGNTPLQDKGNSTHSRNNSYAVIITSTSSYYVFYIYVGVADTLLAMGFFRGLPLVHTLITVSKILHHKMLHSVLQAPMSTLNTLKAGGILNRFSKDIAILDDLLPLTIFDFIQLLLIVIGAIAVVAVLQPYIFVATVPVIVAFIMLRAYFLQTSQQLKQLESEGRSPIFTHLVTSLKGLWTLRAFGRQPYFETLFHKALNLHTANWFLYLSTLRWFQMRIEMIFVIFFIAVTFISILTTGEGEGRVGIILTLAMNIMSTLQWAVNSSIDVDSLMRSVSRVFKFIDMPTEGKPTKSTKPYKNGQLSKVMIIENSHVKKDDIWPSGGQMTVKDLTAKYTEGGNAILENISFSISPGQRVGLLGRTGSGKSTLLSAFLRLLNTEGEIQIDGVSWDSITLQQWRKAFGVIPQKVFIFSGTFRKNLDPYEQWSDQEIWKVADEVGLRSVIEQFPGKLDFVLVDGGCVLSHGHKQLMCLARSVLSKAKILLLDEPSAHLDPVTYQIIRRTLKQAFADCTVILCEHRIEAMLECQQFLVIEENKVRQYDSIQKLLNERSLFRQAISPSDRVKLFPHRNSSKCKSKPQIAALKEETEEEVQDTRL
T2 sequence (P13569 423-646 limits assumed): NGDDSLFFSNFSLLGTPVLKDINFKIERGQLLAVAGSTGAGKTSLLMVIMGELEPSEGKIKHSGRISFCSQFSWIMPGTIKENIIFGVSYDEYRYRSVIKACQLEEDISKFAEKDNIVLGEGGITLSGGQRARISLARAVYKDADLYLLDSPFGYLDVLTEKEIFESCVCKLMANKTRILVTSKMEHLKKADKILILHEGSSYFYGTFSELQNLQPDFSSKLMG

Row | Compound | TECC (AUC, 10 μM) (CFTR) | DSLS 3D (100 μM ΔT) (NBD1)
1 | Cc1cnn2c1-c1cc(ccc1F)Oc1c(F)cc3[nH]ccc3c1CCS(=O)(=O)CC(C)(C)COCC2c1cccc(CCC(=O)O)c1 (single isomer, unassigned) [Compound 85, 3-[3-(23,29-difluoro-3,11,11-trimethyl-13,13-dioxo-9,25-dioxa-13λ6-thia-5,6,20-triazapentacyclo[24.3.1.02,6.016,24.017,21]triaconta-1(30),2,4,16,18,21,23,26,28-nonaen-7-yl)phenyl]propanoic Acid] | A (a TECC value less than 12 is marked “A”) | A (an ΔTagg value less than or equal to 5 °C is marked “A”)
2 | CC1(C)CS(=O)(=O)CCc2c(c(F)cc3[nH]ccc23)Oc2ccc(F)c(c2)-c2ccn(n2)C(c2cccc(CCC(=O)O)c2)CCO1 (single isomer, unassigned) [Compound 87A, 3-[3-(22,28-difluoro-10,10-dimethyl-12,12-dioxo-9,24-dioxa-12lambda6-thia-5,19,30-triazapentacyclo[23.3.1.12,5.015,23.016,20]-triaconta-1(29),2(30),3,15,17,20,22,25,27-nonaen-6-yl)phenyl]propanoic acid] | A (a TECC value less than 12 is marked “A”) | B (a value above 5 °C and less than or equal to 10 °C is marked “B”)
3 | CC1(C)CS(=O)(=O)CCc2c(c(F)cc3[nH]ccc23)Oc2ccc(F)c(c2)-c2ccn(n2)C(c2cccc(CCC(=O)O)c2)CCO1 (single isomer, unassigned) [Compound 87B, 3-[3-(22,28-difluoro-10,10-dimethyl-12,12-dioxo-9,24-dioxa-12lambda6-thia-5,19,30-triazapentacyclo[23.3.1.12,5.015,23.016,20]-triaconta-1(29),2(30),3,15,17,20,22,25,27-nonaen-6-yl)phenyl]propanoic acid] | A (a TECC value less than 12 is marked “A”) | C (a value greater than 10 °C and less than or equal to 25 °C is marked “C”)
4 | CCn1nc2nc1-c1cc(ccc1F)Oc1c(F)cc3[nH]ccc3c1CCS(=O)(=O)CC(C)(C)CCCC2(C)c1cccc(CCC(=O)O)c1 (single isomer, unassigned) [Compound 91A, 3-[3-(3-ethyl-22,28-difluoro-6,10,10-trimethyl-12,12-dioxo-24-oxa-12lambda6-thia-3,4,19,30-tetrazapentacyclo[23.3.1.12,5.015,23.016,20]triaconta-1(29),2(30),4,15,17,20,22,25,27-nonaen-6-yl)phenyl]propanoic Acid] | A (a TECC value less than 12 is marked “A”) | C (a value greater than 10 °C and less than or equal to 25 °C is marked “C”)
5 | CCn1nc2nc1-c1cc(ccc1F)Oc1c(F)cc3[nH]ccc3c1CCS(=O)(=O)CC(C)(C)CCCC2(C)c1cccc(CCC(=O)O)c1 (single isomer, unassigned) [Compound 91B, 3-[3-(3-ethyl-22,28-difluoro-6,10,10-trimethyl-12,12-dioxo-24-oxa-12lambda6-thia-3,4,19,30-tetrazapentacyclo[23.3.1.12,5.015,23.016,20]triaconta-1(29),2(30),4,15,17,20,22,25,27-nonaen-6-yl)phenyl]propanoic Acid] | A (a TECC value less than 12 is marked “A”) | A (an ΔTagg value less than or equal to 5 °C is marked “A”)
6 | Cn1nc2nc1-c1cccc(c1)Oc1c(F)cc3[nH]ccc3c1CCS(=O)(=O)CC(C)(C)CCCC2(C)c1cccc(CCC(=O)O)c1 (single isomer, unassigned) [Compound 95A, 3-[3-(22-fluoro-3,6,10,10-tetramethyl-12,12-dioxo-24-oxa-12λ6-thia-3,4,19,30-tetrazapentacyclo[23.3.1.12,5.015,23.016,20]triaconta-1(29),2(30),4,15,17,20,22,25,27-nonaen-6-yl)phenyl]propanoic Acid] | A (a TECC value less than 12 is marked “A”) | A (an ΔTagg value less than or equal to 5 °C is marked “A”)
